pIC50: −log10 of the molar value.
Test system: 171881-019-R-J1-PDC tumor spheroid viability
Assay: Anticancer human tumor 171881-019-R-J1-PDC patient-derived invasive breast carcinoma cell line growth inhibition [PI3K]
Conditions: spheroids with HUVEC and MSC; for viability, T/C: stronger effect = lower value
Summary of the method: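 Tumor cells were combined with HUVEC and MSCs into spheroids, then dosed with PI3K-inhibitor combinations over half-log ranges capped near clinical Cmax or 10 microM.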

[1] = curve of first compound, second compound 0.0316 µM
[2] = curve of first compound, second compound 0.1 µM
[3] = curve of first compound, second compound 0.316 µM
[4] = curve of first compound, second compound 1 µM
[5] = second compound 0.0316 µM, first compound 0.0316 µM
[6] = second compound 0.0316 µM, first compound 0.1 µM
[7] = second compound 0.1 µM, first compound 0.0316 µM
[8] = second compound 0.1 µM, first compound 0.1 µM
[9] = second compound 0.316 µM, first compound 0.0316 µM
[10] = second compound 0.316 µM, first compound 0.1 µM
[11] = second compound 1 µM, first compound 0.0316 µM
[12] = second compound 1 µM, first compound 0.1 µM
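Further: spheroids exposed to compound for 7 days before viability read.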
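Wherever viability, T/C is given: 100% = DMSO vehicle-treated spheroids.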

CC1(C)CCC(CN2CCN(c3ccc(C(=O)NS(=O)(=O)c4ccc(NCC5CCOCC5)c([N+](=O)[O-])c4)c(Oc4cnc5[nH]ccc5c4)c3)CC2)=C(c2ccc(Cl)cc2)C1 + CC(Nc1ncnc2nc[nH]c12)c1cc2cccc(Cl)c2c(=O)n1-c1ccccc1 was tested. Which pIC50 [1] did it give?
Its pIC50 is 5.38.

And the pIC50 [2]?
The pIC50 was 5.40.

And the pIC50 [3]?
Its pIC50 is 5.40.

And the pIC50 [4]?
The pIC50 was 5.40.

And the pIC50 (curve of first compound, second compound 3.16 µM)?
Its pIC50 is 5.59.

And the pIC50 (curve of first compound, second compound 10 µM)?
The pIC50 was 5.83.

And the viability, T/C [5]?
The viability, T/C was 88.6%.

What about the viability, T/C [6] of the same compound?
The viability, T/C was 80.2%.

What about the viability, T/C (second compound 0.0316 µM, first compound 0.316 µM) of the same compound?
Its viability, T/C is 80.3%.

And the viability, T/C (second compound 0.0316 µM, first compound 1 µM)?
The viability, T/C was 76%.

What about the viability, T/C (second compound 0.0316 µM, first compound 3.16 µM) of the same compound?
The viability, T/C was 61.9%.

And the viability, T/C (second compound 0.0316 µM, first compound 10 µM)?
Its viability, T/C is 14.3%.

What about the viability, T/C [7] of the same compound?
The viability, T/C was 89.7%.

And the viability, T/C [8]?
The viability, T/C was 89.9%.

What about the viability, T/C (second compound 0.1 µM, first compound 0.316 µM) of the same compound?
Its viability, T/C is 74.5%.

And the viability, T/C (second compound 0.1 µM, first compound 1 µM)?
Its viability, T/C is 72.6%.

And the viability, T/C (second compound 0.1 µM, first compound 3.16 µM)?
The viability, T/C was 64.1%.

What about the viability, T/C (second compound 0.1 µM, first compound 10 µM) of the same compound?
Its viability, T/C is 11.7%.

What about the viability, T/C [9] of the same compound?
The viability, T/C was 90.4%.

And the viability, T/C [10]?
The viability, T/C was 88.2%.

What about the viability, T/C (second compound 0.316 µM, first compound 0.316 µM) of the same compound?
The viability, T/C was 81.9%.

And the viability, T/C (second compound 0.316 µM, first compound 1 µM)?
Its viability, T/C is 97.3%.

What about the viability, T/C (second compound 0.316 µM, first compound 3.16 µM) of the same compound?
The viability, T/C was 59.2%.

What about the viability, T/C (second compound 0.316 µM, first compound 10 µM) of the same compound?
Its viability, T/C is 12.4%.

What about the viability, T/C [11] of the same compound?
Its viability, T/C is 92.1%.

And the viability, T/C [12]?
Its viability, T/C is 88.3%.

What about the viability, T/C (second compound 1 µM, first compound 0.316 µM) of the same compound?
Its viability, T/C is 81.4%.

What about the viability, T/C (second compound 1 µM, first compound 1 µM) of the same compound?
The viability, T/C was 84.8%.

What about the viability, T/C (second compound 1 µM, first compound 3.16 µM) of the same compound?
The viability, T/C was 59.9%.

What about the viability, T/C (second compound 1 µM, first compound 10 µM) of the same compound?
The viability, T/C was 10.8%.

What about the viability, T/C (second compound 3.16 µM, first compound 0.0316 µM) of the same compound?
The viability, T/C was 84.5%.

And the viability, T/C (second compound 3.16 µM, first compound 0.1 µM)?
Its viability, T/C is 87.9%.

What about the viability, T/C (second compound 3.16 µM, first compound 0.316 µM) of the same compound?
The viability, T/C was 85%.

What about the viability, T/C (second compound 3.16 µM, first compound 1 µM) of the same compound?
Its viability, T/C is 75.7%.

What about the viability, T/C (second compound 3.16 µM, first compound 3.16 µM) of the same compound?
The viability, T/C was 44.6%.

What about the viability, T/C (second compound 3.16 µM, first compound 10 µM) of the same compound?
Its viability, T/C is 11.4%.

What about the viability, T/C (second compound 10 µM, first compound 0.0316 µM) of the same compound?
Its viability, T/C is 64.5%.

And the viability, T/C (second compound 10 µM, first compound 0.1 µM)?
Its viability, T/C is 55.9%.

What about the viability, T/C (second compound 10 µM, first compound 0.316 µM) of the same compound?
The viability, T/C was 57%.

And the viability, T/C (second compound 10 µM, first compound 1 µM)?
The viability, T/C was 57%.

And the viability, T/C (second compound 10 µM, first compound 3.16 µM)?
The viability, T/C was 37.7%.

What about the viability, T/C (second compound 10 µM, first compound 10 µM) of the same compound?
Its viability, T/C is 9.06%.

Which results are given for Cn1ncnc1[C@H]1c2n[nH]c(=O)c3cc(F)cc(c23)N[C@@H]1c1ccc(F)cc1 + CC(Nc1ccc2c(c1)OCCn1cc(N3C(=O)OCC3C(F)F)nc1-2)C(N)=O?
pIC50 (curve of first compound, second compound 0.00316 µM): < 7.00; pIC50 (curve of first compound, second compound 0.01 µM): < 7.00; pIC50 [1]: < 7.00; pIC50 [2]: > 9.50; pIC50 [3]: > 9.50; pIC50 [4]: > 9.50; viability, T/C (second compound 0.00316 µM, first compound 0.000316 µM): 85.4%; viability, T/C (second compound 0.00316 µM, first compound 0.001 µM): 96.5%; viability, T/C (second compound 0.00316 µM, first compound 0.00316 µM): 95.2%; viability, T/C (second compound 0.00316 µM, first compound 0.01 µM): 91.6%; viability, T/C (second compound 0.00316 µM, first compound 0.0316 µM): 95.9%; viability, T/C (second compound 0.00316 µM, first compound 0.1 µM): 70.6%; viability, T/C (second compound 0.01 µM, first compound 0.000316 µM): 79%; viability, T/C (second compound 0.01 µM, first compound 0.001 µM): 76.4%; viability, T/C (second compound 0.01 µM, first compound 0.00316 µM): 78.2%; viability, T/C (second compound 0.01 µM, first compound 0.01 µM): 65.5%; viability, T/C (second compound 0.01 µM, first compound 0.0316 µM): 81.5%; viability, T/C (second compound 0.01 µM, first compound 0.1 µM): 71.5%; viability, T/C (second compound 0.0316 µM, first compound 0.000316 µM): 54%; viability, T/C (second compound 0.0316 µM, first compound 0.001 µM): 55.7%; viability, T/C (second compound 0.0316 µM, first compound 0.00316 µM): 51.5%; viability, T/C (second compound 0.0316 µM, first compound 0.01 µM): 52%; viability, T/C [5]: 55.3%; viability, T/C [6]: 48.7%; viability, T/C (second compound 0.1 µM, first compound 0.000316 µM): 37.8%; viability, T/C (second compound 0.1 µM, first compound 0.001 µM): 38.9%; viability, T/C (second compound 0.1 µM, first compound 0.00316 µM): 36.8%; viability, T/C (second compound 0.1 µM, first compound 0.01 µM): 38%; viability, T/C [7]: 36.8%; viability, T/C [8]: 34.5%; viability, T/C (second compound 0.316 µM, first compound 0.000316 µM): 26.2%; viability, T/C (second compound 0.316 µM, first compound 0.001 µM): 26.3%; viability, T/C (second compound 0.316 µM, first compound 0.00316 µM): 26.1%; viability, T/C (second compound 0.316 µM, first compound 0.01 µM): 25%; viability, T/C [9]: 26.2%; viability, T/C [10]: 21.1%; viability, T/C (second compound 1 µM, first compound 0.000316 µM): 21.7%; viability, T/C (second compound 1 µM, first compound 0.001 µM): 18.7%; viability, T/C (second compound 1 µM, first compound 0.00316 µM): 21.2%; viability, T/C (second compound 1 µM, first compound 0.01 µM): 18.6%; viability, T/C [11]: 19.8%; viability, T/C [12]: 17.7%

For CC(Cn1ccc(-c2ccc(C#N)c(Cl)c2)n1)NC(=O)c1cc(C(C)O)[nH]n1 (stereo unspecified), which viability, T/C (compound 0.0316 µM) is on record?
Its viability, T/C is 95.5% [middle of 4 runs].

And the viability, T/C (compound 0.1 µM)?
Its viability, T/C is 91.1% [middle of 4 runs].

What about the viability, T/C (compound 0.316 µM) of the same compound?
The viability, T/C was 92.4% [middle of 4 runs].

And the viability, T/C (compound 1 µM)?
The viability, T/C was 93.4% [middle of 4 runs].

And the viability, T/C (compound 3.16 µM)?
Its viability, T/C is 87.9% [middle of 4 runs].

What about the viability, T/C (compound 10 µM) of the same compound?
The viability, T/C was 64.3% [middle of 4 runs].

And the pIC50 (curve of compound)?
The pIC50 was < 5.00.
